# Reference: patent publication US11554171B2, “Compounds and methods for the targeted degradation of bromodomain-containing proteins” (Arvinas Operations, Inc., priority 2015, dated 2023)
# Tested on: c-myc in 22RV-1 cells
# Test: Human c-myc ELISA assay
# Type: cell-based
# Conditions: Homo sapiens; for Emax: 22Rv1, 18 h, read-out: Degradation of BRD4: Maximum inhibition (%) c-Myc ELISA in 22RV1 cells; for DC50: 22Rv1, read-out: Degradation of BRD4: DC50 (uM) c-Myc ELISA in 22RV1 cells
# Outline: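 22RV-1 cells treated 18 h with 8-point 1:3 compound dilutions (final top 300 nM or 1 μM, 0.1% DMSO). Cells lysed in RIPA buffer with protease/phosphatase inhibitors, and c-myc protein in cleared lysate quantified by ELISA against a standard curve. DC50 reported for c-myc suppression.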
Structure (SMILES),DC50 [µM],Emax [%]
CC(=O)N[C@H](C(=O)N1C[C@H](O)C[C@H]1C(=O)NCc1ccc(-c2scnc2C)cc1OCCCOc1ccc(C2=N[C@@H](CC(=O)Nc3ccccc3)c3nnc(C)n3-c3sc(C)c(C)c32)cc1)C(C)(C)C [Example 155],0.1 to 1,65.5
Cc1ncsc1-c1ccc(CNC(=O)[C@@H]2C[C@@H](O)CN2C(=O)[C@@H](C(C)C)n2cc(-c3cccc(OCCNC(=O)C[C@@H]4N=C(c5ccc(Cl)cc5)c5c(sc(C)c5C)-n5c(C)nnc54)c3)cn2)cc1 [Example 162],> 1,7.62
Cc1ncsc1-c1ccc([C@H](C)NC(=O)[C@@H]2C[C@@H](O)CN2C(=O)[C@@H](NC(=O)COCCCOCCCCOc2ccc3c(c2)c2c(C(N)=O)cc(-c4c(C)noc4C)cc2n3Cc2ccccc2)C(C)(C)C)cc1 [Example 166],< 0.01,97
Cc1ncsc1-c1ccc(CNC(=O)[C@@H]2C[C@@H](O)CN2C(=O)[C@@H](C(C)C)n2cc(-c3ccnc(O[C@H](C)CNC(=O)C[C@@H]4N=C(c5ccc(Cl)cc5)c5c(sc(C)c5C)-n5c(C)nnc54)c3)cn2)cc1 [Example 167],> 1,27.6
Cc1ncsc1-c1ccc(CNC(=O)[C@@H]2C[C@@H](O)CN2C(=O)[C@H](C(C)C)n2cc(-c3ccnc(O[C@H](C)CNC(=O)C[C@@H]4N=C(c5ccc(Cl)cc5)c5c(sc(C)c5C)-n5c(C)nnc54)c3)cn2)cc1 [Example 168],0.01 to 0.1,92
"Cc1ncsc1-c1ccc([C@H](C)NC(=O)[C@@H]2C[C@@H](O)CN2C(=O)[C@@H](NC(=O)CCc2cc(F)cc(O[C@H]3C[C@H](NC(=O)C[C@@H]4N=C(c5ccc(Cl)cc5)c5c(sc(C)c5C)-n5c(C)nnc54)C3)c2)C(C)(C)C)cc1 [Example 173, (2S,4R)-1-[(2S)-2-(3-{3-fluoro-5-[(1,3-trans)-3-{2-[(9S)-7-(4-chlorophenyl)-4,5,13-trimethyl-3-thia-1,8,11,12-tetraazatricyclo[8.3.0.0^2,^6]trideca-2(6),4,7,10,12-pentaen-9-yl]acetamido}cyclobutoxy]phenyl}propanamido)-3,3-dimethylbutanoyl]-4-hydroxy-N-[(1S)-1-[4-(4-methyl-1,3-thiazol-5-yl)phenyl]ethyl]pyrrolidine-2-carboxamide]",< 0.01,98
Cc1ncsc1-c1ccc(CNC(=O)[C@@H]2C[C@@H](O)CN2C(=O)[C@@H](NC(=O)COCCOCCOc2ccc3c(c2)c2c(C(N)=O)cc(-c4c(C)noc4C)cc2n3Cc2ccccc2)C(C)(C)C)cc1 [Example 174],0.01 to 0.1,96.4
Cc1ncsc1-c1ccc(CNC(=O)[C@@H]2C[C@@H](O)CN2C(=O)[C@@H](NC(=O)COCCCCOc2ccc3c(c2)c2c(C(N)=O)cc(-c4c(C)noc4C)cc2n3Cc2ccccc2)C(C)(C)C)cc1 [Example 175],0.01 to 0.1,92
"Cc1ncsc1-c1ccc(CNC(=O)[C@@H]2C[C@@H](O)CN2C(=O)[C@@H](C(C)C)n2cc(-c3ccnc(O[C@H]4C[C@@H](NC(=O)C[C@@H]5N=C(c6ccc(Cl)cc6)c6c(sc(C)c6C)-n6c(C)nnc65)C4)c3)cn2)cc1 [Example 177, (2S,4R)-4-hydroxy-N-{[4-(4-methyl-1,3-thiazol-5-yl)phenyl]methyl}-1-[(2R)-3-methyl-2-(4-{2-[(1,3-cis)-3-{2-[(9S)-7-(4-chlorophenyl)-4,5,13-trimethyl-3-thia-1,8,11,12-tetraazatricyclo[8.3.0.0^2,^6]trideca-2(6),4,7,10,12-pentaen-9-yl]acetamido}cyclobutoxy]pyridin-4-yl}-1H-pyrazol-1-yl)butanoyl]pyrrolidine-2-carboxamide]",> 1,39.3
"Cc1ncsc1-c1ccc(CNC(=O)[C@@H]2C[C@@H](O)CN2C(=O)[C@H](C(C)C)n2cc(-c3ccnc(O[C@H]4C[C@@H](NC(=O)C[C@@H]5N=C(c6ccc(Cl)cc6)c6c(sc(C)c6C)-n6c(C)nnc65)C4)c3)cn2)cc1 [Example 178, (2S,4R)-4-hydroxy-N-{[4-(4-methyl-1,3-thiazol-5-yl)phenyl]methyl}-1-[(2S)-3-methyl-2-(4-{2-[(1,3-cis)-3-{2-[(9S)-7-(4-chlorophenyl)-4,5,13-trimethyl-3-thia-1,8,11,12-tetraazatricyclo[8.3.0.0^2,6]trideca-2(6),4,7,10,12-pentaen-9-yl]acetamido}cyclobutoxy]pyridin-4-yl}-1H-pyrazol-1-yl)butanoyl]pyrrolidine-2-carboxamide]",0.01 to 0.1,99
Cc1ncsc1-c1ccc(CNC(=O)[C@@H]2C[C@@H](O)CN2C(=O)[C@@H](C(C)C)n2cc(-c3ccnc(O[C@@H](C)CNC(=O)C[C@@H]4N=C(c5ccc(Cl)cc5)c5c(sc(C)c5C)-n5c(C)nnc54)c3)cn2)cc1 [Example 179],> 1,13.9

# Now from value to molecule, other results behind:
DC50 [µM],Structure (SMILES),Emax [%]
< 0.01,Cc1ncsc1-c1ccc([C@H](C)NC(=O)[C@@H]2C[C@@H](O)CN2C(=O)[C@@H](NC(=O)CCc2cc(F)cc(OC(C)CNC(=O)C[C@@H]3N=C(c4ccc(Cl)cc4)c4c(sc(C)c4C)-n4c(C)nnc43)c2)C(C)(C)C)cc1 (some centres unmarked) [Example 156],96.5
< 0.01,Cc1ncsc1-c1ccc([C@H](C)NC(=O)[C@@H]2C[C@@H](O)CN2C(=O)[C@@H](NC(=O)c2ccc(OC(C)CCNC(=O)C[C@@H]3N=C(c4ccc(Cl)cc4)c4c(sc(C)c4C)-n4c(C)nnc43)cn2)C(C)(C)C)cc1 (some centres unmarked) [Example 157],97
< 0.01,Cc1ncsc1-c1ccc([C@H](C)NC(=O)[C@@H]2C[C@@H](O)CN2C(=O)[C@@H](NC(=O)/C=C/c2cccc(O[C@@H](C)CNC(=O)C[C@@H]3N=C(c4ccc(Cl)cc4)c4c(sc(C)c4C)-n4c(C)nnc43)c2)C(C)(C)C)cc1 [Example 158],96.5
< 0.01,Cc1ncsc1-c1ccc([C@H](C)NC(=O)[C@@H]2C[C@@H](O)CN2C(=O)[C@@H](NC(=O)/C=C/c2cccc(O[C@H](C)CNC(=O)C[C@@H]3N=C(c4ccc(Cl)cc4)c4c(sc(C)c4C)-n4c(C)nnc43)c2)C(C)(C)C)cc1 [Example 159],96.5
< 0.01,Cc1ncsc1-c1ccc([C@H](C)NC(=O)[C@@H]2C[C@@H](O)CN2C(=O)[C@@H](NC(=O)/C=C/c2ccc(F)c(O[C@@H](C)CNC(=O)C[C@@H]3N=C(c4ccc(Cl)cc4)c4c(sc(C)c4C)-n4c(C)nnc43)c2)C(C)(C)C)cc1 [Example 160],94.5
< 0.01,Cc1ncsc1-c1ccc([C@H](C)NC(=O)[C@@H]2C[C@@H](O)CN2C(=O)[C@@H](NC(=O)/C=C/c2ccc(F)c(O[C@H](C)CNC(=O)C[C@@H]3N=C(c4ccc(Cl)cc4)c4c(sc(C)c4C)-n4c(C)nnc43)c2)C(C)(C)C)cc1 [Example 161],97
< 0.01,Cc1ncsc1-c1ccc(CNC(=O)[C@@H]2C[C@@H](O)CN2C(=O)[C@H](C(C)C)n2cc(-c3cccc(OCCNC(=O)C[C@@H]4N=C(c5ccc(Cl)cc5)c5c(sc(C)c5C)-n5c(C)nnc54)c3)cn2)cc1 [Example 163],96.5
0.01 to 0.1,Cc1ncsc1-c1ccc(CNC(=O)[C@@H]2C[C@@H](O)CN2C(=O)[C@@H](NC(=O)c2cccc(CCOCCNC(=O)C[C@@H]3N=C(c4ccc(Cl)cc4)c4c(sc(C)c4C)-n4c(C)nnc43)n2)C(C)(C)C)cc1 [Example 164],96
< 0.01,"Cc1ncsc1-c1ccc([C@H](C)NC(=O)[C@@H]2C[C@@H](O)CN2C(=O)[C@@H](NC(=O)c2cc3cc(OCCNC(=O)C[C@@H]4N=C(c5ccc(Cl)cc5)c5c(sc(C)c5C)-n5c(C)nnc54)ccc3o2)C(C)(C)C)cc1 [Example 165, (2S,4R)-1-[(2S)-2-{[5-(2-{2-[(9S)-7-(4-chlorophenyl)-4,5,13-trimethyl-3-thia-1,8,11,12-tetraazatricyclo[8.3.0.0^2,^6]trideca-2(6),4,7,10,12-pentaen-9-yl]acetamido}ethoxy)-1-benzofuran-2-yl]formamido}-3,3-dimethylbutanoyl]-4-hydroxy-N-[(1S)-1-[4-(4-methyl-1,3-thiazol-5-yl)phenyl]ethyl]pyrrolidine-2-carboxamide]",97
> 1,Cc1ncsc1-c1ccc([C@H](C)NC(=O)[C@H]2C[C@H](O)CN2C(=O)[C@@H](NC(=O)COc2ccc(O[C@H]3C[C@@H](NC(=O)C[C@@H]4N=C(c5ccc(Cl)cc5)c5c(sc(C)c5C)-n5c(C)nnc54)C3)nc2)C(C)(C)C)cc1 [Example 169],42.2
< 0.01,"Cc1ncsc1-c1ccc([C@H](C)NC(=O)[C@@H]2C[C@@H](O)CN2C(=O)[C@@H](NC(=O)c2cc3cc(OCCCNC(=O)C[C@@H]4N=C(c5ccc(Cl)cc5)c5c(sc(C)c5C)-n5c(C)nnc54)ccc3o2)C(C)(C)C)cc1 [Example 170, (2S,4R)-1-[(2S)-2-{[5-(3-{2-[(9S)-7-(4-chlorophenyl)-4,5,13-trimethyl-3-thia-1,8,11,12-tetraazatricyclo[8.3.0.0^2,^6]trideca-2(6),4,7,10,12-pentaen-9-yl]acetamido}propoxy)-1-benzofuran-2-yl]formamido}-3,3-dimethylbutanoyl]-4-hydroxy-N-[(1S)-1-[4-(4-methyl-1,3-thiazol-5-yl)phenyl]ethyl]pyrrolidine-2-carboxamide]",97
< 0.01,Cc1ncsc1-c1ccc([C@H](C)NC(=O)[C@@H]2C[C@@H](O)CN2C(=O)[C@@H](NC(=O)CCc2ccc(O[C@H]3C[C@@H](NC(=O)C[C@@H]4N=C(c5ccc(Cl)cc5)c5c(sc(C)c5C)-n5c(C)nnc54)C3)nc2)C(C)(C)C)cc1 [Example 171],97
< 0.01,Cc1ncsc1-c1ccc([C@H](C)NC(=O)[C@@H]2C[C@@H](O)CN2C(=O)[C@@H](NC(=O)CCc2ccc(O[C@H]3C[C@H](NC(=O)C[C@@H]4N=C(c5ccc(Cl)cc5)c5c(sc(C)c5C)-n5c(C)nnc54)C3)nc2)C(C)(C)C)cc1 [Example 172],96
< 0.01,Cc1ncsc1-c1ccc([C@H](C)NC(=O)[C@@H]2C[C@@H](O)CN2C(=O)[C@@H](NC(=O)CCCCOCCCNC(=O)C[C@@H]2N=C(c3ccc(Cl)cc3)c3c(sc(C)c3C)-n3c(C)nnc32)C(C)(C)C)cc1 [Example 176],90.3
